Source: publication PMC9554092, “Self-assembled peptide-paclitaxel nanoparticles for enhancing therapeutic efficacy in colorectal cancer” (Frontiers in Bioengineering and Biotechnology, 2022)

Assays:
HCT116 cells = assay: Cell apoptosis, Annexin V-Alexa Fluor488/PI flow cytometry; type: cell-based, human; conditions: HCT116, PTX concentration 5 μg/ml, 48 h, representative result
Protocol: HCT116 cells were seeded in six-well plates at a density of 1 × 10^4 cells per well and incubated at 37°C until a confluence of 80%. The cells were treated with PTX, Rev-PTX NPs, LPK-PTX NPs at normalized PTX concentration of 5 μg/ml at 37°C for 48 h. Then the cells were trypsinzed, washed, and stained with Annexin V-Alexa Fluor488/PI according to manufacturer’s protocol (Life Technologies, United States). The cell apoptosis was monitored by flow cytometry (BD, CA, United States) and the apoptotic percentage of three independent experiments was analyzed.

[1] = Systemic toxicity in the PDX model (body weight, H&E of major organs); type: in vivo; conditions: PDX mice
Protocol: (§1) The therapeutic efficacy of was evaluated in PDX mice model. When the tumor volume reached about 100 mm3, mice were randomly assigned into four groups (six mice per group) and intravenously administered with DMSO, free PTX, Rev-PTX NPs and LPK-PTX NPs respectively at an equivalent dose of 0.8 mg/kg PTX every 3 days. Total mice body weights and tumor sizes were recorded every 3 days. At the end of the observation, tumors and major organs including heart, liver, spleen, lung, colon and kidney were isolated, […] and subjected to hematoxylin and eosin (H&E) and Ki-67 staining using standard protocols for histopathological analysis.

[2] = system: colorectal cancer patient-derived xenografts (PDX); assay: In vivo therapeutic efficacy in CRC patient-derived xenograft (PDX) model; conditions: CRC PDX mice
Protocol: as §1

CC(=O)O[C@H]1C(=O)[C@@]2(C)[C@H]([C@H](OC(=O)c3ccccc3)[C@]3(O)C[C@H](OC(=O)[C@H](O)[C@@H](NC(=O)c4ccccc4)c4ccccc4)C(C)=C1C3(C)C)[C@]1(OC(C)=O)CO[C@@H]1C[C@@H]2O [PTX, Paclitaxel]
early plus late apoptosis (Q3 + Q2) (HCT116 cells): 44.8%
colon histology (HE) [1]: severe crypt destruction
HE-stained sections of colon, lung and liver ([1]; 0.8 mg/kg PTX equivalent i.v. every 3 days): serious damages
Ki-67 staining of tumor tissue [2]: numerous Ki-67-positive cells
